20 compounds from patent US12605352B2, “Compositions and methods for inhibiting blood cancer cell growth” (UNIVERSITY OF NEW BRUNSWICK, priority 2019, dated 2026) can be followed below.

Test [1] has as its system KMM-1 human myeloma cells. The experiment in a line: Cell growth inhibition (cell viability assay) on IMiD-resistant human myeloma cells KMM-1. It counts as cell-based. Conditions: for inhibition at 10 µM: Homo sapiens, KMM-1 cells, 48 hr treatment; for anti-myeloma cell growth inhibition (in words): 10 uM, KMM-1, listed in decreasing order of bioactivity. The source says:
(§1) In certain embodiments of the present invention, the remarkable cancer cell growth inhibitory potential of caffeic acid phenpropyl ester analogues was established by treating human leukemia, myeloma and lymphoma cell lines with the analogues of Table 1 and measuring the viability of blood cancer cells by cell viability assay. The efficacy of the analogues of Table 1 in comparison to a standard chemotherapy drug was confirmed.
With reference to Table 1, Table 2 and FIG. 1, FIG. 1 is a bar graph depicting cell growth inhibitory effect of caffeic acid phenpropyl ester (GL8) analogues at 10 uM concentration according to certain aspects of the present disclosure on human myeloma cells (Cell line: KMM-1; 48 hr treatment).

Test [2] deals with OCI-LY3 human lymphoma cells. The experiment in a line: Cell growth inhibition (cell viability assay) on IMiD-resistant human lymphoma cells OCI-LY3. The test is classed as cell-based. Conditions: for inhibition at 1 µM / inhibition at 10 µM: Homo sapiens, OCI-LY3 cells, 48 hr treatment; for inhibition at 10 µM / anti-lymphoma cell growth inhibition (in words): 10 uM; for anti-lymphoma cell growth inhibition (in words): OCI-LY3, listed in decreasing order of bioactivity.
Source text: as §1
With reference to Table 3 and FIG. 2, FIG. 2 is a bar graph depicting cell growth inhibitory effect of caffeic acid phenpropyl ester (GL8) analogues according to certain aspects of the present disclosure at 1 uM concentration on human lymphoma cells (Cell line: OCI-LY3; 48 hr treatment).
With reference to Table 1, Table 4 and FIG. 3, FIG. 3 is a bar graph depicting cell growth inhibitory effect of caffeic acid phenpropyl ester (GL8) analogues according to certain aspects of the present disclosure at 10 uM concentration on human lymphoma cells (Cell line: OCI-LY3; 48 hr treatment).

For test [3], the system named is HL-60 human leukemia cells. In words: Cell growth inhibition (cell viability assay) on human leukemia cells HL-60. It counts as cell-based. Conditions: HL-60 cells, 48 hr treatment.
Source text: as §1
With reference to Table 5 and FIG. 4, FIG. 4 is a bar graph depicting cell growth inhibitory effect of caffeic acid phenpropyl ester (GL8) analogues at 10 uM concentration according to certain aspects of the present disclosure on human leukemia cells (Cell line: HL-60; 48 hr treatment).

In test [4] the test system is KMM1 cells. In words: Annexin V-PI flow cytometry apoptosis assay on KMM1 myeloma cells. It counts as cell-based, human. Conditions: 10 uM, 72-hour treatment. On the procedure:
Induction of apoptosis in myeloma cells by various inhibitors was determined by staining exposed phosphatidylserine with Annexin V-FITC and DNA with Propidium iodide using Alexa Fluor® 488 annexin V/Dead Cell Apoptosis Kit (Invitrogen, ThermoFisher Scientific, CA) according to the manufacturer's instructions. Single-cell suspensions were analyzed on a Beckmann Coulter Gallios Flow Cytometer with Kaluza analyses software. Twenty-five thousand events were acquired for every condition. Apoptotic cells were scored as Annexin V+, PI− and Annexin V+, PI+.
Referring to FIG. 6, Apoptotic effect of veh/vehicle (DMSO), lenalidomide (len), pomalidomide (pom), CAPE, GL8, As26 and J229 (all compounds at 10 uM concentration) on KMM1 cells upon 72-hour treatment followed by Annexin V-PI flow cytometry analyses is shown. Percentage of early and late apoptotic cells are presented as mean±SD (*P≤0.05; **P≤0.01).
A general note: A flow cytometer gives signals particle by particle.

Test [5] has as its system myeloma cell lines (KMM1, MM1R, JJN3). In words: PrestoBlue cell viability assay, concentration response on myeloma cell lines. It counts as cell-based, human. To be noted: in comparison to IMiDs, CAPE, GL8 and J229; 48 hours. On the procedure: Myeloma cell lines were treated for 3 or 5 days with increasing concentration of lenalidomide (FIG. 5A) and pomalidomide (FIG. 5B). KMM1 cells (FIG. 5D), MM1R cells (FIG. 5E), and JJN3 cells (FIG. 5F) were treated for 48 hours with varying concentration of CAPE, GL8, As26 and J229. The cell growth inhibition was determined by PrestoBlue cell viability assay. Data from three independent experiments is presented as mean±SD. IC50 values (FIG. 5C) representing half-maximal inhibitory concentration of compounds were determined using GraphPad prism analyses software.

By inhibition is commonly meant the change of the read-out against control, counted positive when it falls. For `COc1cc(/C=C/C(=O)OCCCc2ccccc2)ccc1O` [MT50, (E)-3-phenylpropyl 3-(4-hydroxy-3-methoxyphenyl)acrylate], the figures for the inhibition at 10 µM in test [1], in test [2] and in test [3] were 13.6%, 1.5% and 13.4%, respectively. The inhibition at 1 µM in test [2] was -0.7%.
For the compound `O=C(/C=C/c1ccc(O)c(O)c1)OCCc1ccccc1` [CAPE, Caffeic acid (3,4-dihydroxycinnamic acid) phenethyl ester, reference compound], the inhibition at 10 µM in test [1] is 14.7%; in test [2] it was 51.8%; in test [3], -6.8%. In test [2], the inhibition at 1 µM was -24.3%.
`O=C(/C=C/c1ccc(O)c(O)c1)OCc1ccccc1` [GL7, (E)-benzyl 3-(3,4-dihydroxyphenyl)acrylate]: the inhibition at 10 µM was 15.9% in test [1], 18.9% in test [2] and 20.5% in test [3]. Also, the inhibition at 1 µM in test [2] was found to be 10.5%.
Consider `Cc1ccc(CCOC(=O)/C=C/c2ccc(O)c(O)c2)cc1` [MT25, (E)-(4-methylphenethyl) 3-(3,4-dihydroxyphenyl)acrylate], for which the inhibition at 10 µM in test [1] was found to be 21.6%; in test [2], 59.8%; in test [3], 28.7%. Further, in test [2], the inhibition at 1 µM came out at 10%.
Turning to `COc1cc(/C=C/C(=O)OCCc2ccccc2)cc(OC)c1O` [HM5, (E)-phenethyl 3-(4-hydroxy-3,5-dimethoxyphenyl)acrylate], the inhibition at 10 µM in test [1] was -8.6%; in test [2], -15.4%; in test [3], -13.3%. The inhibition at 1 µM in test [2] turned out to be 3.1%.
The like results for `COc1cc(/C=C/C(=O)OCCc2ccccc2)ccc1O` [MT49, (E)-phenethyl 3-(4-hydroxy-3-methoxyphenyl)acrylate] were, in that order, 6.5%, 1.2%, 14.4% and -1%.
Turning to `O=C(/C=C/c1ccc(O)c(O)c1)OC/C=C/c1ccccc1` [LL14, (2E)-cinnamyl 3-(3,4-dihydroxyphenyl)acrylate], the inhibition at 10 µM in test [1] turned out to be 16.1%; in test [2] it was 61.5%; in test [3], 21.6%. The inhibition at 1 µM in test [2] is -1%.
For `O=C(/C=C/c1ccc(O)cc1O)OCCCc1ccccc1` [MT72, (E)-3-phenylpropyl 3-(2,4-dihydroxyphenyl)acrylate], the inhibition at 10 µM in test [1] was -0.2%; in test [2], -4.5%; in test [3], -8.2%. The inhibition at 1 µM in test [2] is 3.3%.
For the compound `O=C(/C=C/c1ccc(O)c(O)c1)OCC#Cc1ccccc1` [Molecule J91, (E)-3-phenylprop-2-ynyl 3-(3,4-dihydroxyphenyl)acrylate], in test [1], the “anti-myeloma cell growth inhibition (in words)” value is listed as “superior anti-myeloma cell growth inhibition” and the inhibition at 10 µM worked out at 31.7%. Besides, in test [2], the inhibition at 1 µM is 0.3% and the inhibition at 10 µM is 39.8%. For the same compound, the inhibition at 10 µM in test [3] is 32.4%.
Take `O=C(/C=C/c1ccc(O)c(O)c1)OCCCc1ccccc1` [GL8, caffeic acid phenpropyl ester, reference compound]: the inhibition at 10 µM in test [1] amounted to 28.2%; in test [2], 78.7%; in test [3], 36%. The inhibition at 1 µM in test [2] was -4.6%.
Consider `O=C(/C=C/c1ccc(O)c(O)c1)NCCCc1ccccc1` [LL28, (E)-3-(3,4-dihydroxypheny1)-N-(3-phenylpropyl)acrylamide], for which the inhibition at 10 µM in test [1] is 15.8%; in test [2] it was 36%; in test [3], 8.7%. Moreover, the inhibition at 1 µM in test [2] is -9.5%.
`COc1cc(/C=C/C(=O)OCCCc2ccccc2)cc(OC)c1O` [HM7, (E)-3-phenylpropyl 3-(4-hydroxy-3,5-dimethoxyphenyl)acrylate]: in test [1], the “anti-myeloma cell growth inhibition (in words)” value is reported as “superior anti-myeloma cell growth inhibition” and the inhibition at 10 µM was determined as 26.6%. Also, in test [2], the “anti-lymphoma cell growth inhibition (in words)” value is “superior anti-lymphoma cell growth inhibition”, the inhibition at 1 µM was -4.9% and the inhibition at 10 µM was 90%. Further, the inhibition at 10 µM in test [3] is 24.1%.
Turning to `O=C(/C=C/c1ccc(O)c(O)c1)Oc1ccccc1` [GL9, (E)-phenyl 3-(3,4-dihydroxyphenyl)acrylate], the inhibition at 10 µM in test [1] stood at 26%; in test [2], 44.7%; in test [3] it was 6.8%. In addition, the inhibition at 1 µM in test [2] was 26.3%.
In the case of `Nc1cccc2c1CN(C1CCC(=O)NC1=O)C2=O` (stereo not shown) [Lenalidomide, lenalidomide, reference compound], the inhibition at 10 µM in test [1] came out at 7.5%; in test [2], 7.5%; in test [3] it was 1.6%.
Take `O=C(/C=C/c1cc(O)ccc1O)OCCCc1ccccc1` [As26, (E)-3-phenylpropyl 3-(2,5-dihydroxyphenyl)acrylate]: in test [4], the “apoptotic effect (in words)” value is “Remarkable apoptotic effect”. In test [1], the “anti-myeloma cell growth inhibition (in words)” value is on record as “superior anti-myeloma cell growth inhibition” and the inhibition at 10 µM is 89.7%. Also, in test [2], the “anti-lymphoma cell growth inhibition (in words)” value is on record as “superior anti-lymphoma cell growth inhibition”, the inhibition at 1 µM came out at 26.6% and the inhibition at 10 µM was 90.3%. Moreover, in test [5], the “myeloma cell growth inhibitory effect (in words)” value was “superior myeloma cell growth inhibitory effect”. The inhibition at 10 µM in test [3] came out at 54.4%.
Consider `O=C(/C=C/c1ccc(O)c(O)c1)OCCCCc1ccccc1` [LL23, (E)-4-phenylbutyl 3-(3,4-dihydroxyphenyl)acrylate], for which, in test [1], the “anti-myeloma cell growth inhibition (in words)” value is “superior anti-myeloma cell growth inhibition” and the inhibition at 10 µM was determined as 27.2%. For the same compound, in test [2], the inhibition at 1 µM is -9.3% and the inhibition at 10 µM stood at 71.7%. Further, the inhibition at 10 µM in test [3] worked out at 33%.
With `O=C(/C=C/c1ccc(O)c(O)c1)CCCc1ccccc1` [Molecule J205, (E)-1-(3,4-dihydroxyphenyl)-6-phenylhex-1-en-3-one], the inhibition at 10 µM in test [1] was 22.2%; in test [2], 76.6%; in test [3], 60.7%. In addition, the inhibition at 1 µM in test [2] stood at 18.7%.
`O=C(/C=C/c1ccc(O)c(O)c1)OCCc1ccc(F)cc1` [MT26, (E)-(4-fluorophenethyl) 3-(3,4-dihydroxyphenyl)acrylate]: the inhibition at 10 µM in test [1] came to 25.9%. Moreover, in test [2], the “anti-lymphoma cell growth inhibition (in words)” value was “superior anti-lymphoma cell growth inhibition”, the inhibition at 1 µM worked out at 0.7% and the inhibition at 10 µM came to 79.3%. In test [3], the inhibition at 10 µM amounted to 32.1%.
On to `Oc1ccc(/C=C/COCCCc2ccccc2)cc1O` [Molecule J229, 4-((E)-3-(3-phenylpropoxy)prop-1-enyl)benzene-1,2-diol], for which, in test [1], the “anti-myeloma cell growth inhibition (in words)” value is listed as “superior anti-myeloma cell growth inhibition” and the inhibition at 10 µM was 49.4%. In test [2], the “anti-lymphoma cell growth inhibition (in words)” value is reported as “superior anti-lymphoma cell growth inhibition”, the inhibition at 1 µM amounted to 2.3% and the inhibition at 10 µM was determined as 78.2%. The inhibition at 10 µM in test [3] came out at 54.3%.
As for `O=C(/C=C/c1cccc(O)c1O)OCCCc1ccccc1` [As25, (E)-3-phenylpropyl 3-(2,3-dihydroxyphenyl)acrylate], the inhibition at 10 µM in test [1] came out at 15.1%; in test [2] it was 84%; in test [3], 13.6%. The “anti-lymphoma cell growth inhibition (in words)” value in test [2] is on record as “superior anti-lymphoma cell growth inhibition”. The inhibition at 1 µM in test [2] came to 69%.
